Assay results published in ChEMBL document CHEMBL5303573, “Mapping human microbiome drug metabolism by gut bacteria and their genes” (Nature, 2019).

Columns and labels:
[1] = The drug is tested on Collinsella aerofaciens strain: ATCC25986 for biotransformation. The drug concentrations were measured before and after a 12-h incubation by liquid-chromatography-coupled mass spectrometry (LC–MS); conditions: 2 µM
[2] = The drug is tested on Bacteroides coprophilus strain: DSM18228 for biotransformation. The drug concentrations were measured before and after a 12-h incubation by liquid-chromatography-coupled mass spectrometry (LC–MS); conditions: 2 µM
[3] = The drug is tested on Bacteroides fragilis strain: ATCC43859 for biotransformation. The drug concentrations were measured before and after a 12-h incubation by liquid-chromatography-coupled mass spectrometry (LC–MS); conditions: 2 µM
[4] = The drug is tested on Clostridium ramosum strain: DSM1402 for biotransformation. The drug concentrations were measured before and after a 12-h incubation by liquid-chromatography-coupled mass spectrometry (LC–MS); conditions: thomasclavelia ramosa, 2 µM
[5] = The drug is tested on Clostridium scindens strain: ATCC35704 for biotransformation. The drug concentrations were measured before and after a 12-h incubation by liquid-chromatography-coupled mass spectrometry (LC–MS); conditions: 2 µM
[6] = The drug is tested on Enterococcus faecalis strain: V583 for biotransformation. The drug concentrations were measured before and after a 12-h incubation by liquid-chromatography-coupled mass spectrometry (LC–MS); conditions: 2 µM
[7] = The drug is tested on Eubacterium hallii strain: DSM3353 for biotransformation. The drug concentrations were measured before and after a 12-h incubation by liquid-chromatography-coupled mass spectrometry (LC–MS); conditions: anaerobutyricum hallii, 2 µM
[8] = The drug is tested on Eubacterium ventriosum strain: ATCC27560 for biotransformation. The drug concentrations were measured before and after a 12-h incubation by liquid-chromatography-coupled mass spectrometry (LC–MS); type: ADME; parameters: dose 2 uM, timepoint 0 vs 12 hours; conditions: 2 µM
[9] = The drug is tested on Ruminococcus gnavus strain: ATCC29149 for biotransformation. The drug concentrations were measured before and after a 12-h incubation by liquid-chromatography-coupled mass spectrometry (LC–MS); conditions: mediterraneibacter gnavus, 2 µM
[10] = The drug is tested on Ruminococcus lactaris strain: ATCC29176 for biotransformation. The drug concentrations were measured before and after a 12-h incubation by liquid-chromatography-coupled mass spectrometry (LC–MS); conditions: 2 µM
[11] = The drug is tested on Escherichia coli strain: BW25113 for biotransformation. The drug concentrations were measured before and after a 12-h incubation by liquid-chromatography-coupled mass spectrometry (LC–MS); conditions: 2 µM
[12] = The drug is tested on Providencia stuartii strain: ATCC25827 for biotransformation. The drug concentrations were measured before and after a 12-h incubation by liquid-chromatography-coupled mass spectrometry (LC–MS); conditions: 2 µM
[13] = bifidobacterium adolescentis, 12 h, 2 µM
Description: The drug is tested on Bifidobacterium adolescentis strain: ATCC 15703 for biotransformation. The drug concentrations were measured before and after a 12-h incubation by liquid-chromatography-coupled mass spectrometry (LC–MS)

[14] = bacteroides thetaiotaomicron, 12 h, 2 µM
Description: The drug is tested on Bacteroides thetaiotaomicron strain: 3731 for biotransformation. The drug concentrations were measured before and after a 12-h incubation by liquid-chromatography-coupled mass spectrometry (LC–MS)

[15] = enterocloster bolteae, 12 h, 2 µM
Description: The drug is tested on Clostridium bolteae strain: ATCCBAA-613 for biotransformation. The drug concentrations were measured before and after a 12-h incubation by liquid-chromatography-coupled mass spectrometry (LC–MS)

[16] = bacteroides fragilis, 12 h, 2 µM
Description: The drug is tested on Bacteroides fragilis strain: NCTC 9343 for biotransformation. The drug concentrations were measured before and after a 12-h incubation by liquid-chromatography-coupled mass spectrometry (LC–MS)

[17] = parabacteroides johnsonii, 12 h, 2 µM
Description: The drug is tested on Parabacteroides johnsonii strain: DSM18315 for biotransformation. The drug concentrations were measured before and after a 12-h incubation by liquid-chromatography-coupled mass spectrometry (LC–MS)

[18] = The drug is tested on Parabacteroides merdae strain: ATCC43184 for biotransformation. The drug concentrations were measured before and after a 12-h incubation by liquid-chromatography-coupled mass spectrometry (LC–MS); conditions: 2 µM
[19] = The drug is tested on Alistipes indistinctus strain: DSM22520 for biotransformation. The drug concentrations were measured before and after a 12-h incubation by liquid-chromatography-coupled mass spectrometry (LC–MS); conditions: 2 µM
[20] = The drug is tested on Clostridium sporogenes strain: ATCC15579 for biotransformation. The drug concentrations were measured before and after a 12-h incubation by liquid-chromatography-coupled mass spectrometry (LC–MS); conditions: 2 µM

Compound	Bacterial Biotransformation [1]	Bacterial Biotransformation [2]	Bacterial Biotransformation [3]	Bacterial Biotransformation [4]	Bacterial Biotransformation [5]	Bacterial Biotransformation [6]	Bacterial Biotransformation [7]	Bacterial Biotransformation [8]	Bacterial Biotransformation [9]	Bacterial Biotransformation [10]	Bacterial Biotransformation [11]	Bacterial Biotransformation [12]	Bacterial Biotransformation [13]	Bacterial Biotransformation [14]	Bacterial Biotransformation [15]	Bacterial Biotransformation [16]	Bacterial Biotransformation [17]	Bacterial Biotransformation [18]	Bacterial Biotransformation [19]	Bacterial Biotransformation [20]
Nc1nnc(-c2cccc(Cl)c2Cl)c(N)n1 [LAMOTRIGINE]	Compound NOT metabolized	Compound NOT metabolized	Compound NOT metabolized	Compound NOT metabolized	Compound NOT metabolized	Compound NOT metabolized	Compound NOT metabolized	Compound NOT metabolized	Compound NOT metabolized	Compound NOT metabolized	Compound NOT metabolized	Compound NOT metabolized	Compound NOT metabolized	Compound NOT metabolized	Compound NOT metabolized					
COc1ccc2cc([C@H](C)C(=O)O)ccc2c1 [NAPROXEN]	Compound NOT metabolized	Compound NOT metabolized	Compound metabolized		Compound NOT metabolized	Compound NOT metabolized	Compound NOT metabolized	Compound NOT metabolized	Compound NOT metabolized	Compound NOT metabolized	Compound NOT metabolized	Compound NOT metabolized		Compound NOT metabolized	Compound NOT metabolized	Compound NOT metabolized				
Cc1ccccc1N1C(=O)c2cc(S(N)(=O)=O)c(Cl)cc2NC1C (stereo not drawn) [METOLAZONE]	Compound NOT metabolized	Compound NOT metabolized	Compound NOT metabolized	Compound NOT metabolized		Compound NOT metabolized	Compound NOT metabolized		Compound NOT metabolized			Compound NOT metabolized	Compound NOT metabolized	Compound NOT metabolized		Compound NOT metabolized	Compound NOT metabolized			
CN1CCOC(c2ccccc2)c2ccccc2C1 (stereo not drawn) [NEFOPAM]	Compound NOT metabolized	Compound NOT metabolized	Compound NOT metabolized		Compound NOT metabolized	Compound NOT metabolized	Compound NOT metabolized	Compound NOT metabolized	Compound NOT metabolized	Compound NOT metabolized		Compound NOT metabolized	Compound NOT metabolized	Compound NOT metabolized	Compound NOT metabolized	Compound NOT metabolized	Compound NOT metabolized	Compound NOT metabolized		
COc1ccccc1N1CCN(CC(O)COc2cccc3ccccc23)CC1 (stereo not drawn) [NAFTOPIDIL]	Compound NOT metabolized	Compound NOT metabolized		Compound NOT metabolized	Compound NOT metabolized	Compound NOT metabolized	Compound NOT metabolized	Compound NOT metabolized	Compound NOT metabolized	Compound NOT metabolized	Compound NOT metabolized	Compound NOT metabolized	Compound NOT metabolized	Compound NOT metabolized	Compound NOT metabolized	Compound NOT metabolized	Compound NOT metabolized	Compound NOT metabolized	Compound NOT metabolized	Compound NOT metabolized
CN1CCC(=C2c3ccccc3CC(=O)c3sccc32)CC1.O=C(O)/C=C/C(=O)O [KETOTIFEN FUMARATE]	Compound NOT metabolized	Compound NOT metabolized	Compound NOT metabolized	Compound NOT metabolized	Compound NOT metabolized	Compound NOT metabolized	Compound NOT metabolized	Compound NOT metabolized	Compound NOT metabolized	Compound NOT metabolized		Compound NOT metabolized	Compound NOT metabolized	Compound NOT metabolized		Compound NOT metabolized	Compound NOT metabolized	Compound NOT metabolized		Compound NOT metabolized
CCc1nn(CCCN2CCN(c3cccc(Cl)c3)CC2)c(=O)n1CCOc1ccccc1 [NEFAZODONE]	Compound NOT metabolized	Compound NOT metabolized		Compound NOT metabolized	Compound NOT metabolized	Compound NOT metabolized		Compound NOT metabolized	Compound NOT metabolized	Compound NOT metabolized	Compound NOT metabolized	Compound NOT metabolized	Compound NOT metabolized	Compound NOT metabolized	Compound NOT metabolized	Compound NOT metabolized	Compound NOT metabolized	Compound NOT metabolized	Compound NOT metabolized	Compound NOT metabolized
CC(C)N(CCC(C(N)=O)(c1ccccc1)c1ccccn1)C(C)C.O=P(O)(O)O (stereo not drawn) [DISOPYRAMIDE PHOSPHATE]	Compound NOT metabolized	Compound NOT metabolized	Compound NOT metabolized		Compound NOT metabolized	Compound NOT metabolized	Compound NOT metabolized	Compound NOT metabolized	Compound NOT metabolized	Compound NOT metabolized		Compound NOT metabolized	Compound NOT metabolized		Compound NOT metabolized		Compound NOT metabolized	Compound NOT metabolized		
Cc1nc(Nc2ncc(C(=O)Nc3c(C)cccc3Cl)s2)cc(N2CCN(CCO)CC2)n1.O [DASATINIB]	Compound NOT metabolized	Compound NOT metabolized		Compound NOT metabolized	Compound metabolized	Compound NOT metabolized		Compound NOT metabolized	Compound NOT metabolized	Compound NOT metabolized	Compound NOT metabolized	Compound NOT metabolized	Compound metabolized	Compound NOT metabolized	Compound metabolized	Compound metabolized	Compound metabolized	Compound NOT metabolized	Compound NOT metabolized	Compound NOT metabolized
CNCC[C@H](Oc1cccc2ccccc12)c1cccs1 [DULOXETINE]	Compound metabolized	Compound metabolized	Compound NOT metabolized	Compound NOT metabolized	Compound NOT metabolized	Compound NOT metabolized		Compound NOT metabolized	Compound NOT metabolized		Compound metabolized		Compound NOT metabolized	Compound NOT metabolized	Compound NOT metabolized	Compound metabolized	Compound metabolized	Compound metabolized		
